Reference: US5081131A, “Omega-((hetero)alkyl)benz(cd)-indol-2-amines” (American Cyanamid Company, priority 1988, dated 1992)
Where a name gives a salt, the structure may show the parent alone. Read-outs that look alike come from different tables or passages of the source.

Target: T1, thromboxane synthetase enzyme (Rattus norvegicus, UniProt P49430)
T1 construct: endogenous in cells; host or cells: washed platelets from arterial blood of male Okamoto-Aoki spontaneously hypertensive rats (animals from Taconic Farms, Germantown, N.Y.)
T1 sequence (P49430 1-533): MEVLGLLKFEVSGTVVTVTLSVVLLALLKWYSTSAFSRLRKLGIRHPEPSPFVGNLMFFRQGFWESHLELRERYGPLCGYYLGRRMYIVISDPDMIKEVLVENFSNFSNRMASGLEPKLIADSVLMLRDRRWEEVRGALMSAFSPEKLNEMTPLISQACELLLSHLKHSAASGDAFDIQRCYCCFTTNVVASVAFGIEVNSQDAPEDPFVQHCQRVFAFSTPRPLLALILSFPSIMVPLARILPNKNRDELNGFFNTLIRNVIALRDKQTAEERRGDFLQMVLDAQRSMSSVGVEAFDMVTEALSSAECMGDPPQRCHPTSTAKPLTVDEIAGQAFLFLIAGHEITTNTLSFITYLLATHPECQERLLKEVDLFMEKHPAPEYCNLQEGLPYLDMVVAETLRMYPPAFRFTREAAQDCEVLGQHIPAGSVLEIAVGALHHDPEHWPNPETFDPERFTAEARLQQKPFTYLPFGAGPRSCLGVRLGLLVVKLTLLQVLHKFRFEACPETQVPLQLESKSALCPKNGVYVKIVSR
Experiment: Thromboxane synthetase enzyme inhibition (TXB2 formation in washed platelets, RIA)
Type: cell-based, spontaneously hypertensive rat
Details: SHR platelets, 10 min at 37° C.
Description: The blood was diluted with 3 ml cold saline and centrifuged at room temperature for 15 min at 468×g. The platelet rich plasma (PRP) was separated. The platelets were isolated by certrifuging the PRP for 10 minutes at 1060×g and washed in 4 ml cold oxygenated Krebs phosphate buffer, pH 7.4. The chilled platelets recovered from centrifuging at 800×g for 10 minutes were resuspended in oxygenated Krebs phosphate buffer and diluted to contain 4.0-6.0×10^4 platelets/micro-liters. The inhibition of TX formation was studied by determining the concentration of thromboxane B2 (TXB2), the stable hydrolysis product of TXA2. Assay samples prepared on ice, contained 200 micro-liters platelet suspension, 50 micro-liters saline, and 50 micro-liters […] (saline) or drug under study. The test drug (0.003 mole) was dissolved in 5 ml of saline. […] The assay samples were incubated for 10 minutes at 37° C. in a metabolic shaker at about 60 rpm. The reaction was terminated by immersing the tubes in an ice bath and adding 50 micro-liters of 0.5M citric acid. The samples were centrifuged for 10 minutes at 2000 rpm at 4° C., and the supernatants were decanted.

[1] = 1×10^-4 Molar, read-out: % Inhibition (Thromboxane Synthetase Enzyme Inhibition)

| inhibition at 100 µM [1] | SMILES | also measured |
| --- | --- | --- |
| 82% | Cc1nccn1CCCNC1=Nc2cccc3cccc1c23 [N-(3-(2-Methyl-1H-imidazol-1-yl)propyl)benz(cd)indol-2-amine, monohydriodide] | – |
| – | CC(CCCNC1=Nc2cccc3cccc1c23)n1ccnc1.O=C(O)/C=C/C(=O)O.O=C(O)/C=C/C(=O)O (centres unmarked) [N-(4-(1H-imidazol-1-yl)pentyl)benz(cd)indol-2-amine, bis-fumarate] | % Inhibition (Thromboxane Synthetase Enzyme Inhibition) (1×10^-4 Molar): 99% |
| 77% | O=C(c1ccccc1)N(CCCn1cncn1)C1=Nc2cccc3cccc1c23 [N-Benz(cd)indol-2-yl-N-(3-(1H-1,2,4-triazol-1-yl)propyl)benzamide] | – |
| 71% | c1cc2c3c(cccc3c1)C(NCCn1ccnc1)=N2 [N-(2-(1H-imidazol-1-yl)ethyl)benz(cd)indol-2-amine] | – |
| 73% | c1ccc(-n2ncc(CNC3=Nc4cccc5cccc3c45)n2)cc1 [N-((2-Phenyl-2H-1,2,3-triazol-2-yl)methyl)benz(cd)indol-2-amine fumarate] | – |
| 97% | N#CCCN(Cc1ccccn1)C1=Nc2cccc3cccc1c23 [N-(2-Cyanoethyl)-N-(2-pyridinylmethyl)benz(cd)indol-2-amine, dihydrochloride] | – |
| 88% | OC(CNC1=Nc2cccc3cccc1c23)Cn1ccnc1 (centres unmarked) [N-(3-(1H-imidazol-1-yl)-2-hydroxypropyl)benz(cd)indol-2-amine] | – |
| – | c1cc2c3c(cccc3c1)C(NCCCCn1ccnc1)=N2 [N-(4-(1H-imidazol-1-yl)butyl)benz(cd)indol-2-amine monobutanedioic acid salt] | inhibition at 100 µM (read-out: % Inhibition (Thromboxane Synthetase Enzyme Inhibition), 1×10^-4 Molar): 93% |
| 100% | c1ccc(-c2nccn2CCCNC2=Nc3cccc4cccc2c34)cc1 [N-(3-(2-Phenyl-1H-imidazol-1-yl)propyl)benz(cd)indol-2-amine, hydriodide] | – |
| 94% | Brc1ccc2c3c(cccc13)C(NCCCCCCCCCCn1ccnc1)=N2 [6-Bromo-N-(10-(1H-imidazol-1-yl)decyl)benz(cd)indol-2-amine] | – |
| 100% | Clc1ccc2c3c(cccc13)C(NCCCCCn1ccnc1)=N2 [6-Chloro-N-(5-(1H-imidazol-1-yl)pentyl)benz(cd)indol-2-amine] | – |
| – | c1cc2c3c(cccc3c1)C(NCCCCn1ccnc1)=N2 [N-(4-(1H-imidazol-1-yl)butyl)benz(cd)indol-2-amine, hydriodi] [N-(4-(1H-imidazol-1-yl)butyl)benz(cd)indol-2-amine, hydriodide] | % Inhibition (Thromboxane Synthetase Enzyme Inhibition) (1×10^-4 Molar): 100% |
| 98% | c1cc2c3c(cccc3c1)C(NCCOCCn1ccnc1)=N2 [N-(2-(2-(1H-imidazol-1-yl)ethoxy)ethyl)benz(cd)indol-2-amine bis-fumarate] | – |
| 35% | Clc1ccc(C(Cn2ccnc2)NC2=Nc3cccc4cccc2c34)cc1 (centres unmarked) [N-(1-(4-chlorophenyl)-2-(1H-imidazol-1-yl)ethyl)benz(cd)indol-2-amine, fumarate] | – |
| – | c1cc2c3c(cccc3c1)C(NCCCCn1ccnc1)=N2 [N-(4-(1H-imidazol-1-yl)butyl)benz(cd)indol-2-amine sesquibut] [N-(4-(1H-imidazol-1-yl)butyl)benz(cd)indol-2-amine sesquibutanedioic acid salt] | % Inhibition (Thromboxane Synthetase Enzyme Inhibition) (1×10^-4 Molar): 98% |
| 95% | CC(CCNC1=Nc2cccc3cccc1c23)c1ccncc1 (centres unmarked) [N-(3-(4-pyridinyl)butyl)benz(cd)indol-2-amine] | – |
| 68% | c1cncc(CNC2=Nc3cccc4cccc2c34)c1 [N-(3-Pyridinylmethyl)benz(cd)indol-2-amine, fumarate] | – |
| 92% | c1cc2c3c(cccc3c1)C(NCCCn1ccnc1)=N2 [N-(3-(1H-imidazol-1-yl)propyl)benz(cd)indol-2-amine, fumarate] | – |
| 95% | c1ccc(CNC2=Nc3cccc4cccc2c34)nc1 [N-(2-Pyridinylmethyl)benz(cd)indol-2-amine, fumarate] | – |
| 89% | CN(CCc1ccccn1)C1=Nc2cccc3cccc1c23 [N-Methyl-N-(2-(2-pyridinyl)ethyl)benz(cd)indol-2-amine fumarate] | – |
